Values of other authors, collected in patent US20160032347A1, “NOVEL METHOD AND DEVICE FOR WHOLE-CELL BACTERIAL BIO-CAPACITOR CHIP FOR DETECTING CELLULAR STRESS INDUCED BY TOXIC CHEMICALS” (Sabanci Universitesi, priority 2011, published 2016).

System: E. coli
Conditions: previous studies; ~6.5%

SMILES: [Cl-].[Na+] [NaCl, sodium chloride]
- salt tolerance level reported for E. coli: up to 1.1 M
